Where two headings read alike, the source gives them in different places.
How the values were obtained:
breast cancer MDA-MB-231 = assay: Cell viability, resazurin assay, MDA-MB-231; conditions: Homo sapiens, MDA-MB-231, 24 h, read-out: MDA-MB-231 IC50
Procedure: (§2) Cells were maintained in a humidified incubator at 37 °C in 5% CO2, and cell viability was determined with the resazurin assay (Cayman Chemical, USA) after the incubation with compounds for indicated concentrations and times or DMSO as control.[72]

[1] = system: washed human platelets coincubated with A549 cancer cells; assay: Tumor cell-induced platelet secretion (PDGF, ATP); format: cell-based
Procedure: (a) Washed human platelets were coincubated with A549 cancer cells under the same conditions as described in Figure 4. Secretion of PDGF and ATP were determined with the enzyme-linked immunosorbent assay (ELISA) and bioluminescent assay, respectively. (b) A549 cancer cells were coincubated with washed human platelets at 37 °C and 5% CO2 in a cell culture incubator for 48 h. After washing with PBS, the numbers of viable cancer cells were determined by trypan blue exclusion. Data are mean ± SEM of at least three independent experiments.
Washed human platelets were coincubated with cancer cells under the same conditions as described in the TCIPA assay. After a 25 min incubation in the aggregometer, the samples were centrifuged at 13,000g for 1 min. The concentrations of PDGF-BB and ATP in the supernatants were determined using an ELISA kit (Abcam, Cambridge, UK) and an ATP bioluminescent assay kit (Sigma, MO, USA), respectively.[52]

[2] = system: multiple myeloma RPMI8226; assay: Cell viability, resazurin assay, RPMI8226; conditions: for IC50: Homo sapiens
Procedure: as §2

ERp57 (PDIA3) = molecular target: T1, ERp57 (PDIA3) (Homo sapiens, UniProt P30101); assay: ERp57 reductase assay (Di-E-GSSG); format: biochemical
T1 sequence (P30101 25-505): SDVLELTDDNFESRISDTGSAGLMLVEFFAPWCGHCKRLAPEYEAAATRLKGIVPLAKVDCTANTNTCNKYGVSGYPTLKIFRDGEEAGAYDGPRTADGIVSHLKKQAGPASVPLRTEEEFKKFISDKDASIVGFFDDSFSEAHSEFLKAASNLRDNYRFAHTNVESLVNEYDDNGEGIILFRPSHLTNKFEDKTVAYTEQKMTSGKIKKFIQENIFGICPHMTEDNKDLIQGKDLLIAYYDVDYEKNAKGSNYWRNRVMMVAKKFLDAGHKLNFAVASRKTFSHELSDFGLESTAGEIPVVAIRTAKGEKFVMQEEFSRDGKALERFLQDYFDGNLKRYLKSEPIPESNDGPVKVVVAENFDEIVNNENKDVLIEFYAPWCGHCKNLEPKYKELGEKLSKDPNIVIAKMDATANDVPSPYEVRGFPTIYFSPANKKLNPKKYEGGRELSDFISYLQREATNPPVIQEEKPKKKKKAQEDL
Text: (§1) In addition to PDI, ERp57 (PDIA3) and ERp72 (PDIA4) are two other major members of the PDI family in both platelets and A549 cells.[62],[63]

[3] = Parallel artificial membrane permeability assay (PAMPA); conditions: 50 μM, 25 ℃, 3 h, verapamil = 100%, ranitidine = 0%
In short: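 Donor wells held 50 μM compound (DMSO <1% v/v, diluted from 10 mM stocks) in buffer; filter membrane coated with 2% w/v DOPC in n-dodecane. Sandwich incubated 3 h at 25 ℃, then donor and acceptor drug amounts quantified by UV spectra (220–400 nm) against reference standards.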

lung cancer A549 = assay: Cell viability, resazurin assay, A549; conditions: Homo sapiens, A549, 24 h, read-out: A549 IC50
Procedure: as §2

platelet surface PDI = platelet surface PDI (Homo sapiens, UniProt P07237); assay: Cell surface PDI reductase activity on intact human platelets (Di-E-GSSG assay)
Sequence of platelet surface PDI (P07237 18-508): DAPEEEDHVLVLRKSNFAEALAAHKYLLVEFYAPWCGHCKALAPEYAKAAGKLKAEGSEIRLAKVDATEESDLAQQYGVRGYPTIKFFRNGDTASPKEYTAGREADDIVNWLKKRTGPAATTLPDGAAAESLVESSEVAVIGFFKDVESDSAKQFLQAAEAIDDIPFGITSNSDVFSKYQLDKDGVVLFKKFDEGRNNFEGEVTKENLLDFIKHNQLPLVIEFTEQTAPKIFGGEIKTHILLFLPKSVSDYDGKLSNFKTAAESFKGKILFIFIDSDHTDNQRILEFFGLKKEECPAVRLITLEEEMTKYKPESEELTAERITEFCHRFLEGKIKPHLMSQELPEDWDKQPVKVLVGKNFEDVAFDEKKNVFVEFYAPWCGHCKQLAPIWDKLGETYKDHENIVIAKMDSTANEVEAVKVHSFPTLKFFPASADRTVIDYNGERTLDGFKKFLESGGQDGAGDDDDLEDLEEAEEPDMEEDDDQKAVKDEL
Procedure: In this assay, a nonfluorescent substrate, dieosin glutathione disulfide (Di-E-GSSG), was reduced into a fluorescent product eosin-glutathione (E-GSH) by platelet surface PDI in the presence of 5 μM dithiothreitol (DTT).

[4] = system: washed human platelets coincubated with A549, MDA-MB-231, or RPMI8226 cancer cells; assay: Tumor cell-induced platelet aggregation (TCIPA); format: cell-based; conditions: 2 μM; A549, MDA-MB-231, RPMI8226 cells, in the presence of plasma
ERp72 (PDIA4) = molecular target: T2, ERp72 (PDIA4) (Homo sapiens, UniProt P13667); assay: ERp72 reductase assay (Di-E-GSSG); format: biochemical; conditions: human recombinant
T2 sequence (P13667 21-645): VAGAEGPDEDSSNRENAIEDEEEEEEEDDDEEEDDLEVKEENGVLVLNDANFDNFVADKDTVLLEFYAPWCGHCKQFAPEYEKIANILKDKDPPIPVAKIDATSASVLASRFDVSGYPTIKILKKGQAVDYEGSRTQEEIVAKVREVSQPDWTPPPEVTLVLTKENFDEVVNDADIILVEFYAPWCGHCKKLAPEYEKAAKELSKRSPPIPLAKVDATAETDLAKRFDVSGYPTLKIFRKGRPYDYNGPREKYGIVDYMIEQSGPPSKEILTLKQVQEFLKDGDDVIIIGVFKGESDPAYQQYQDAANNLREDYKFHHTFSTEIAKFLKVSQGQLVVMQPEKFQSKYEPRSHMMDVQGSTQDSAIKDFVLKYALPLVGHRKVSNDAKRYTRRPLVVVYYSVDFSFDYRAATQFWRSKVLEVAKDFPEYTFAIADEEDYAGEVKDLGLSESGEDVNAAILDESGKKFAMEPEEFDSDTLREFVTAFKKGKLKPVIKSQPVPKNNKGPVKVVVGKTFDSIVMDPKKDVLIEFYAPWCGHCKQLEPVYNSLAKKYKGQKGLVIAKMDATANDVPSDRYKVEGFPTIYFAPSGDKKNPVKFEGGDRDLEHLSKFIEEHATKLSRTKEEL
Text: as §1

- IC50 (breast cancer MDA-MB-231): 6.96 ± 0.47 µM
- IC50 ([2]; RPMI-8226, 24 h, read-out: RPMI8226 IC50): 0.57 ± 0.01 µM
- IC50 ([2]; RPMI-8226, 72 h, read-out: RPMI8226 IC50, 72 h): 0.061 µM
- concentrations inhibiting ERp57 and ERp72 relative to PDI (ERp57 (PDIA3); ERp57 and ERp72 together, fold higher than required to inhibit PDI): 4 to 7 fold
- IC50 (ERp57 (PDIA3); human recombinant, Di-E-GSSG): 6.98 ± 1.78 µM
- Permeability (%) [3]: 10.64%
- IC50 (lung cancer A549): 36.8 ± 1.93 µM
- IC50 (platelet surface PDI): 0.42 ± 0.07 µM
- IC50 (ERp72 (PDIA4)): 13.7 ± 0.66 µM
Structure (SMILES): CC(=O)OC1O[C@H](CSC2=CC(=O)c3cccc(O)c3C2=O)[C@@H](OC(C)=O)C(OC(C)=O)[C@H]1OC(C)=O (stereo in doubt) [Compound 18, 2-(1,2,3,4-Tetra-O-acetyl-6-deoxy-6-thio-α-D-glucopyranose)-8-hydroxynaphthalene-1,4-dione]
- tumor cell-induced increase in extracellular PDGF and ATP (platelet secretion) [1]: reduced
- S.I. (EAhy926/RPMI8226), selectivity index ([2]; 24 h IC50 ratio): 12.8
- prevention of TCIPA [4]: significantly prevented TCIPA

Source: PMC10945480 (Journal of Medicinal Chemistry, 2024)
